US6153611A, “Piperazinyl-cyclohexanes and cyclohexenes” (Bristol-Myers Squibb Company, priority 1993, dated 2000)
Where two headings read alike, the source gives them in different places.

What was measured:
Dopamine D2 = biological target: T1, Dopamine D2 (Rattus norvegicus, UniProt P61169); assay: Dopamine D2 Binding Assay ([3H]Spiperone, corpus striatum membranes); parameters: species or system male Sprague-Dawley rats; settings: [3H]Spiperone 0.1 nM, 37° C., 15 min
T1 construct: The corpus striatum was crudely dissected and frozen on dry ice; from tissue; host or cells: rat corpus striatum membranes (male Sprague-Dawley rats, Charles River)
Description: Activity at D2 sites is measured using the screening process set out in Example 67.
Dopamine D2 Binding Assay
Dopamine D2 affinity was determined according to the procedures of Burt, Creese and Snyder [Molecular Pharmacology 12,800 (1976); Science 196, 326 (1977); Science 192, 481 (1976)]. Briefly, male Sprague-Dawley rats (Charles River) were decapitated, brains rapidly removed and chilled in ice-cold 50 mM Hepes/KOH buffer (pH 7.4, 20° C.). The corpus striatum was crudely dissected and frozen on dry ice. Tissue was pooled and stored at -80° C. until use. On the day of assay, tissue was thawed in 20 ml ice-cold Hepes/KOH buffer, and homogenized with a polytron for 15 sec at 18,000 rpm. The homogenate was centrifuged (39,000×g, 10 min, at 4° C.). The supernatant was discarded and the pellet rehomogenized in ice-cold Hepes/KOH buffer and recentrifuged as described previously. The supernatant was again discarded and the pellet resuspended (1:100) in ice-cold Hepes/KOH buffer (pH 7.4, 20° C., containing 120 mM NaCl, 5 mM KCl, 1 mM MgCl2, 0.1% (w/v) ascorbic acid, and 10 μM pargylline, and stored on ice until assay. The binding assay (1 ml total volume) was performed in duplicate and initiated by the addition of 800 μl membrane homogenate to tubes containing 100 μl [^3 H]Spiperone (0.1 nM final concentration), and 100 μl competitor, buffer, or butaclamol, which was used to define the non-specific binding. The assay was incubated at 37° C. for 15 min, afterwhich the assay was terminated by rapid filtration.
In vitro IC50 test values for binding to the D2 receptor were determined for representative compounds of Formula I by the method of Burt, Creese, and Snyder, Molecular Pharmacology 12, 800 (1976); Creese, Burt, and Snyder, Science 196, 326 (1977); and Creese, Burt and Snyder, Science 192, 481 (1976). Test IC50 values greater than 1,000 nM are considered to reflect inactivity at the D2 receptor, indicating the risk of extrapyramidal side effects is small.

brain ischemia = assay: Anoxic Nitrogen Test in Rats; type: in vivo, male Sprague-Dawley rats; settings: Rattus norvegicus, sc, subcutaneously, 2 hr survival, read-out: Nitrogen Anoxia % Survival
From the text: Most specifically, administration of the compounds of Formula I results in protection against hypoxia-induced death in an anoxic nitrogen test in rats (Example 66). The test identifies the neuro-protective effects of substances against lethal brain damages produced by a lack of oxygen consumption (anoxia). In this test procedure, control animals exposed for one minute to a pure nitrogen atmosphere will expire because of respiratory failure caused by irreversible damage to the brain respiratory center.
Anoxic Nitrogen Test in Rats
The animals utilized are male Sprague-Dawley rats (200-400 grams) housed four animals per cage in a normal controlled environment with unlimited access to food and water. Usually there are 8 animals per dose, however, […] can be employed to obtain an initial impression of a compound's activity. Animals are parenterally or orally administered the vehicle or test compound 30 minutes before the anoxic insult. The anoxic episode consists of placing up to 8 animals in the sealed test chamber (10" l×10" w×6" h) continuously flushed with pure N2 (4.5 grade) at a flow rate of 5 SCFM for 1 min. Animals are then promptly removed to normal atmosphere and observed for the 2 hour period. Typically, animals become disoriented within 15 sec after which they remain motionless.
Even though the heart is still beating after the N2 exposure, all control animals fail to gasp when removed from the chamber and usually expire within 3 minutes. Drug treated animals, however, still gasp or start gasping after being removed, which is a good indication that the animals will survive the N2 exposure [see Wauquire, A., et al: Arch. Int. Pharmacodyn., 249, 330-334 (1981); Wauquier, A., et al: Drug Dev. Res., 8, 373-380 (1986)]. Results are recorded as:
(Number of animals surviving (2 hr))/(Number of animals tested)×100%
The anoxic nitrogen test is an in vivo model of brain ischemia in rats [see: Wauquire, A., et al: Arch. Int. Pharmacodyn., 249, 330-334 (1981); Wauquier, A., et al: Drug Dev. Res., 8, 373-380 (1986)]. Compounds of the present invention are active in this in vivo model of brain ischemia when given subcutaneously in the doses indicated in Table 2, thus providing additional evidence that the present compounds will be useful in the treatment of brain ischemia.

sigma receptor = biological target: T2, sigma receptor (Cavia porcellus, UniProt Q60492); assay: Sigma binding (method of Tam and Cook)
T2 construct: from tissue
Description: In vitro IC50 test values for binding to the sigma receptor were determined for representative compounds of Formula I by the method of Tam and Cook [see: Tam, S. W., and Cook, L: Proc. Natl. Acad. Sci. USA 81, 5618-5621 (1984)] with only minor modifications. Test IC50 values lower than 100 nM are considered to reflect activity at the sigma receptor.

T1 sequence (P61169 whole entry): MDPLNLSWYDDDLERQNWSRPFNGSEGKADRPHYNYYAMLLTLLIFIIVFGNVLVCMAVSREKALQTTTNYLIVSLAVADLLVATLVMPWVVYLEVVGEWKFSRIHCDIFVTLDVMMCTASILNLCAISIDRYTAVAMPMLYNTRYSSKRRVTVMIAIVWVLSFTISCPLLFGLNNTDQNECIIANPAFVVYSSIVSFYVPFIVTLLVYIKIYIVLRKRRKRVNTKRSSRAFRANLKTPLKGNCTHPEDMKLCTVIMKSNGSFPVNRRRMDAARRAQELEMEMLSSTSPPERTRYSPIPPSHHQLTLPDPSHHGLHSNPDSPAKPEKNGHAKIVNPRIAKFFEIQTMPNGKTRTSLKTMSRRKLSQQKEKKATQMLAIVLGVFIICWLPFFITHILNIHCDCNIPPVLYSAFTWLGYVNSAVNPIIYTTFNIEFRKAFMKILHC
T2 sequence (Q60492 whole entry): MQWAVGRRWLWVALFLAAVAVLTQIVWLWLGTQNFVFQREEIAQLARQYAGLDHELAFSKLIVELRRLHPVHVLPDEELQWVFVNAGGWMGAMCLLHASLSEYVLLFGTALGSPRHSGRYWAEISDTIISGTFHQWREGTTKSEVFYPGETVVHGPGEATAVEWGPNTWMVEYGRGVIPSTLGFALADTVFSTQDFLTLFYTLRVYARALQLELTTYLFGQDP

Row | SMILES | IC50 (Dopamine D2) [nM] | IC50 (sigma receptor) [nM] | other results
1 | Fc1ccc(C2=CCC(N3CCN(Cc4ccccc4)CC3)CC2)cc1 (stereo not drawn) [Example 35, 1-[4-(4-Fluorophenyl)-3-cyclohexen-1-yl]-4-(phenylmethyl)-piperazine] | 50000 to 100000 | 1.9 | responders at 15 mg/kg (brain ischemia; 15 & 20 mg/kg): 100%
2 | Fc1ccc(C2=CCC(N3CCN(Cc4ccccc4)CC3)CC2)c2ccccc12 (stereo not drawn) [Example 36, 1-[4-(4-Fluoro-1-naphthalenyl)-3-cyclohexen-1-yl]-4-(phenylmethyl)piperazin] | 1000 to 10000 | – | responders at 50 mg/kg (brain ischemia; 50 mg/kg): 100%
3 | C1=C(c2ccc3c(c2)OCO3)CCC(N2CCN(Cc3ccccc3)CC2)C1 (stereo not drawn) [Example 37, 1-[4-(1,3-Benzodioxol-5-yl)-3-cyclohexen-1-yl]-4-(phenylmnethyl) piperazine] | 10000 to 50000 | 1.9 | responders at 40 mg/kg (brain ischemia): 92%
4 | C1=C(c2nc3ccccc3s2)CCC(N2CCN(Cc3ccccc3)CC2)C1 (stereo not drawn) [Example 38, 1-[4-(2-Benzothiazolyl)-3-cyclohexen-1-yl]-4-(phenylmethyl)piperazine] | 10000 to 50000 | 3.9 | responders at 80 mg/kg (brain ischemia; 80 mg/kg): 100%
5 | COc1ccc(C2=CCC(N3CCN(Cc4ccccc4)CC3)CC2)cc1 (stereo not drawn) [Example 39, 1-[4-(4-Methoxyphenyl)-3-cyclohexen-1-yl]-4-(phenylmethyl)piperazine] | 1000 to 10000 | 0.9 | responders at 20 mg/kg (brain ischemia; 20 & 30 mg/kg): 92%
6 | FC(F)(F)c1ccc(C2=CCC(N3CCN(Cc4ccccc4)CC3)CC2)cc1 (stereo not drawn) [Example 40, 1-(Phenylmethyl)-4-[4-[4-(trifluoromethyl)phenyl]-3-cyclohexen-1-yl]piperazine] | 10000 to 50000 | 4.5 | responders at 10 mg/kg (brain ischemia): 100%
7 | Fc1ccc(CN2CCN(C3CC=C(c4ccc(F)cc4)CC3)CC2)cc1 (stereo not drawn) [Example 41, 1-[4-(4-Fluorophenyl)-3-cyclohexen-1-yl]-4-[(4-fluorophenyl)methyl]piperazine] | 1000 to 10000 | 0.6 | responders at 20 mg/kg (brain ischemia; 20 mg/kg): 92%
8 | Fc1ccc(CN2CCN(C3CC=C(c4ccc(C(F)(F)F)cc4)CC3)CC2)cc1 (stereo not drawn) [Example 42, 1-[(4-Fluorophenyl)methyl]-4-[4-[4-(trifluoromethyl)phenyl]-3-cyclohexen-1-yl]piperazine] | > 100000 | 6.9 | responders at 20 mg/kg (brain ischemia; 20 mg/kg): 100%
9 | C1=C(Cc2ccccc2)CCC(N2CCN(Cc3ccccc3)CC2)C1 (stereo not drawn) [Example 43, 1-(Phenylmethyl)-4-[4-(phenylmethyl)-3-cyclohexen-1-yl]piperazine] | 1000 to 10000 | 2.1 | responders at 5 mg/kg (brain ischemia; 5 mg/kg): 75%
10 | Fc1ccc(C2=CCC(N3CCN(Cc4cccs4)CC3)CC2)cc1 (stereo not drawn) [Example 44, 1-[4-(4-Fluorophenyl)-3-cyclohexen-1-yl]-4-(2-thienylmethyl)piperazine] | 1000 to 10000 | – | responders at 40 mg/kg (brain ischemia): 100%
11 | Fc1ccc(C2=CCC(N3CCN(Cc4ccc5ccccc5n4)CC3)CC2)cc1 (stereo not drawn) [Example 45, 2{{4-[4-(4-Fluorophenyl)-3-cyclohexen-1-yl]-1-piperazinyl]methyl]quinoline] | 1000 to 10000 | – | responders at 20 mg/kg (brain ischemia; 20 mg/kg): 83%
12 | Fc1ccc(C2=CCC(N3CCN(Cc4ccncc4)CC3)CC2)cc1 (stereo not drawn) [Example 46, 1-[4-(4-Fluorophenyl)-3-cyclohexen-1-yl]-4-(4-pyridinylmethyl)piperazine] | 50000 to 100000 | 0.5 | responders at 20 mg/kg (brain ischemia; 20 mg/kg): 83%
13 | Fc1ccc(C2=CCC(N3CCC(Cc4ccccc4)CC3)CC2)cc1 (stereo not drawn) [Example 47, 1-[4-(4-Fluorophenyl)-3-cyclohexen-1-yl]-4-(phenylmethyl)piperidine] | 1000 to 10000 | 4 | responders at 40 mg/kg (brain ischemia): 88%
14 | COc1ccc2[nH]cc(C3=CCC(N4CCN(Cc5ccccc5)CC4)CC3)c2c1 (stereo not drawn) [Example 48, 5-Methoxy-3-[4-[4-(phenylmethyl)-1-piperazinyl]-1-cyclohexen-1-yl]-1H-indole] | 1000 to 10000 | 6.2 | responders at 40 mg/kg (brain ischemia): 88%
15 | Fc1ccccc1CC1CCN(C2CC=C(c3ccc4c(c3)OCO4)CC2)CC1 (stereo not drawn) [Example 53, 1-[4-(1,3-Benzodioxol-5-yl)-3-cyclohexen-1-yl]-4-[(2-fluorophenyl)methyl]piperidine] | 1000 to 10000 | – | –
16 | Fc1ccc(F)c(CC2CCN(C3CC=C(c4ccc(F)c(F)c4)CC3)CC2)c1 (stereo not drawn) [Example 55, 1-[4-(3,4-Difluorophenyl)-3-cyclohexen-1-yl]-4-[(2,5-difluorophenyl)methyl]piperidine] | 1000 to 10000 | – | –
17 | C1=C(c2ccc3c(c2)OCCO3)CCC(N2CCN(Cc3ccccc3)CC2)C1 (stereo not drawn) [Example 56, 1-[4-(1,4-Benzodioxan-6-yl)-3-cyclohexen-1-yl]-4-(phenylmethyl)piperazine] | – | – | responders at 10 mg/kg (brain ischemia): 100%
18 | Clc1ccccc1CN1CCN(C2CC=C(c3ccc4c(c3)OCO4)CC2)CC1 (stereo not drawn) [Example 57, 1-[4-(1,3-Benzodioxol-5-yl)-3-cyclohexen-1-yl]-4-[(2-chlorophenyl)methyl]piperazine] | 1000 to 10000 | – | responders at 10 mg/kg (brain ischemia): 25%
19 | Fc1ccc(F)c(CN2CCN(C3CC=C(c4ccc5c(c4)OCO5)CC3)CC2)c1 (stereo not drawn) [Example 58, 1-[4-(1,3-Benzodioxol-5-yl)-3-cyclohexen-1-yl]-4-[(2,5-difluorophenyl)methyl]piperazine] | 1000 to 10000 | – | responders at 10 mg/kg (brain ischemia): 62%
20 | COc1cccc(CN2CCN(C3CC=C(c4ccc5c(c4)OCO5)CC3)CC2)c1 (stereo not drawn) [Example 59, 1-[4-(1,3-Benzodioxol-5-yl)-3-cyclohexen-1-yl]-4-[(3-methoxyphenyl)methyl]piperazine] | 1000 to 10000 | – | responders at 10 mg/kg (brain ischemia): 75%
21 | Ic1ccc(I)c(CN2CCN(C3CC=C(c4ccc5c(c4)OCO5)CC3)CC2)c1 (stereo not drawn) [Example 61, 1-[4-(1,3-Benzodioxol-5-yl)-3-cyclohexen-1-yl]-4-[(2,5-diiodophenyl)methyl]piperazine] | > 100000 | – | –
22 | Fc1ccc([C@H]2CC[C@H](N3CCN(Cc4ccc5ccccc5n4)CC3)CC2)cc1 [Example 64, Trans 2-{{4-[4-(4-fluorophenyl)-1-cyclohexyl]-1-piperazinyl}methyl]quinoline] | 1000 to 10000 | – | responders at 5 mg/kg (brain ischemia; 5 & 20 mg/kg): 83%
